# From PMC10614388, “Genoprotective potential of Macaranga species phytochemical compounds on HT-29 human colorectal adenocarcinoma cell line” (Genes and Environment, 2023)
# “Also recorded” adds a separate entry of the source. Where two headings read alike, the source gives them in different places.
# Columns and labels:
# [1] = tested on: HT-29 human colorectal adenocarcinoma cell line; test: Sulforhodamine B (SRB) cytotoxicity assay; assay type: cell-based; settings: HT-29 cells, 48 h treatment
# Procedure: (§1) HT-29 (HTB-38™) cells were grown in McCoy’s 5a Modified Medium (Sigma-Aldrich, St. Louis, MO, USA) while CCD-18Co (CRL-1459™) cells were grown in Eagle’s Minimum Essential Medium (EMEM; Thermo Fisher Scientific, Waltham, MA, USA). Both culture media were supplemented with 10% foetal bovine serum (FBS; Thermo Fisher Scientific, Waltham, MA, USA) and penicillin-streptomycin antibiotic (Thermo Fisher Scientific, Waltham, MA, USA). Non-essential amino acids (NEAA; Thermo Fisher Scientific, Waltham, MA, USA) were added to the completed EMEM media. Cells were maintained at 37 °C in a 5% CO2 incubator. Cells were detached via trypsinization (0.025% trypsin) after reaching confluency and were ready to be used for tests.
# (§2) Sulforhodamine B (SRB) assay was used to assess the cytotoxicity of the compounds [17]. Briefly, HT-29 and CCD-18Co cells were seeded in 96-well-plate at 1.5 × 10^5 cells/ml respectively and were incubated at 37 °C in 5% CO2 for 24 h. 100 µl of six concentrations of serially diluted compounds (0.94–30 µg/ml) were added in their respective wells. Hydrogen peroxide (10 mM) was used as the positive control. The plate was incubated for 48 h. Cells were fixed with 50 µl of 50% cold (4 °C) trichloroacetic Acid (TCA) and incubated at 4 °C for 1 h. The plates were washed five times with tap water and air-dried before staining with 100 µL of 0.4% (w/v) SRB staining solution (Sigma-Aldrich, St. Louis, MO, USA). Further incubation was done for 30 min at room temperature. Subsequently, the plates were washed three times with 1% (v/v) acetic acid to remove any unbound stains. After air-dried, 200 µL of 10 mM trizma base were added into each well and agitated for 15 min. Absorbance was read with a microplate reader with Microplate Manager® Software at the wavelength of 564 nm. All experiments were carried out in triplicates.
# [2] = tested on: CCD-18Co human normal colon cell line; test: Sulforhodamine B (SRB) cytotoxicity assay; assay type: cell-based; settings: CCD-18Co cells, 48 h treatment
# Procedure: as §1, §2
# HT-29 cells [3] = test: Annexin V-FITC/PI apoptosis assay (flow cytometry); assay type: cell-based, human
# Procedure: The mode of cell death was determined using the Annexin V-FITC/PI apoptosis assay. Cells were treated with IC50 value of the selected compound and apoptosis assessment were done at 4 h, 24 and 48 h respectively. 100µM of menadione was used as a positive control with an enriched media act as a negative control. The measurement of apoptosis is based on phosphatidylserine (PS) exposure as described previously. Briefly, cells were collected and resuspended in […] annexin V buffer containing […] FITC-conjugated annexin V and incubated for 15 min in the dark. Propidium iodide ([…] of 50 mg/ml stock in PBS) was then added and samples were subjected to flow cytometric analysis using FACS CANTO II (BD Biosciences, San Jose, CA, USA).
# HT-29 cells [4] = test: Reactive oxygen species by dihydroethidine (HE) staining (flow cytometry); assay type: cell-based, human
# Procedure: The generation of superoxide anion was determined as described previously. […] Cells were then centrifuged at 220 g for 5 min and resuspended in 1 ml PBS. Flow cytometry was performed using FACS CANTO II (BD Bioscience).
# HT-29 cells [5] = settings: human, 21.2 µM
# Procedure: (§3) Alkaline Comet Assay was used to assess strand breaks in DNA indicative of DNA damage. The experiment was carried out according to previous study by Tan et al.. […] Cells were also treated with hydrogen peroxide (H2O2) (as positive control, 1.0 mM) for 30 min. […] Following respective incubations, detached cells in the media were collected, added to trypsinize cells and centrifuged (2500 rpm/5 min). The supernatant was removed, and the pellet was washed with Ca^2+−/Mg^2+-free PBS before re-centrifugation. Pellets left at the bottom were mixed thoroughly with 80 µl of 0.6% low melting agarose (LMA) (w/v) and the mixture was pipetted onto hardened 0.6% normal melting agarose (NMA) (w/v) on the slide. Coverslips were placed to spread the mixture and the slides were left on ice for LMA to solidify. Following the removal of the coverslips, the embedded cells were lysed in lysis buffer containing 2.5 M NaCl, 100 mM Na2EDTA, 10 mM Tris, and 1% Triton X-100 for 1 h at 4 °C. Slides were soaked in electrophoresis buffer solution for 20 min at 4 °C for DNA-unwinding before electrophoresis at 300 mA, 25 V, for 20 min. Subsequently, the slides were rinsed with neutralizing buffer for 5 min and stained with […] ethidium bromide solution. Slides were analysed using Leitz Laborlux epifluorescence microscope equipped with 515 barrier filter and 560 emission filter. Fifty cells per slide were scored and the tail moment (TM) and % tail DNA (TD) were analyzed with COMET assay III (Perceptive Instruments, UK).
# HT-29 cells [6] = test: Alkaline Comet assay, protection against menadione-induced genotoxicity
# Procedure: as §3
# [7] = tested on: murine leukemia P-388 cells; design: method as in earlier work; settings: Tanjung et al. (2017); cited from earlier work
# [8] = design: method as in doi:10.1016/j.phytol.2019.02.002; settings: cited from earlier work
# [9] = pre-treated with Laevifolin A at IC50 for 20 h, followed by 4-hour menadione (100 µM)
# [10] = menadione 100 µM, 4-hour incubation
structure (smiles),measurement,setting,value
CC(C)=CCc1cc(CCc2c(CC=C(C)C)c(O)cc(O)c2CC=C(C)C)ccc1O [Malayheyneiin A],IC50,[1],no IC50 values were obtained
CC(C)=CCc1c(CCc2c(CC=C(C)C)c(O)cc(O)c2CC=C(C)C)ccc(O)c1O [Laevifolin A],IC50,[2],59.5 µM
same,IC50,"[1]; Homo sapiens, read-out: IC50",21.2 µM
same,induction of apoptotic cells,"HT-29 cells [3]; Laevifolin A at IC50 (21.2 µM), 4 h, 24 and 48 h, compared to negative control",no induction of apoptosis; also recorded: no significant induction of apoptotic cells; also recorded: did not induce apoptosis
same,percentage of cells with HE uptake (generation of ROS),"HT-29 cells [4]; Laevifolin A at IC50 (21.2 µM), compared with negative control",no significant increase; also recorded: no significant increase or decrease of ROS
same,"Level of DNA damage, % tail DNA",HT-29 cells [5]; 30 min,6.4 ± 1.6%
same,"Level of DNA damage, Tail moment",HT-29 cells [5]; 30 min,0.53 ± 0.1 Arbitrary unit
same,"Level of DNA damage, % tail DNA",HT-29 cells [5]; 1 h,6.0 ± 0.6%
same,"Level of DNA damage, Tail moment",HT-29 cells [5]; 1 h,0.45 ± 0.03 Arbitrary unit
same,"Level of DNA damage, % tail DNA",HT-29 cells [5]; 4 h,4.3 ± 1.2%
same,"Level of DNA damage, Tail moment",HT-29 cells [5]; 4 h,0.31 ± 0.1 Arbitrary unit
same,"Level of DNA damage, % tail DNA",HT-29 cells [5]; 24 h,7.8 ± 0.7%
same,"Level of DNA damage, Tail moment",HT-29 cells [5]; 24 h,0.69 ± 0.1 Arbitrary unit
same,"Level of DNA damage, % tail DNA",HT-29 cells [6]; [9],1.24 ± 0.1%
same,"Level of DNA damage, Tail moment",HT-29 cells [6]; [9],9.8 ± 0.9 Arbitrary unit
same,IC50,[7],4.3 ± 0.6 µM
same,"antioxidant properties, DPPH radical scavenging activity",[8],possesses antioxidant properties
CC(C)=CCc1cc(CCc2c(CC=C(C)C)c(O)cc(O)c2CC=C(C)C)cc(O)c1O [Laevifolin B],IC50,[1],no IC50 values were obtained
same,IC50,[7],12.3 ± 0.6 µM
"CC1=CC(=O)c2ccccc2C1=O [Menadione, reference compound]",induction of apoptotic cells,HT-29 cells [3]; positive control at 100 µM,significant (p < 0.05) increase of apoptotic cells
same,percentage of cells with HE uptake (generation of ROS),"HT-29 cells [4]; menadione at 100 µM, positive control",22.6 ± 1.0%
same,"Level of DNA damage, % tail DNA",HT-29 cells [6]; [10],*23.4 ± 3.1%
same,"Level of DNA damage, Tail moment",HT-29 cells [6]; [10],*7.00 ± 0.8 Arbitrary unit
